According to PMC7016953 (Cells, 2020):

How the values were obtained:
mTRPC5-YFP = tested on: T1, mTRPC5-YFP; assay: Selectivity profiling, fluo-4 [Ca2+]i response, TRPC5; assay type: cell-based, mouse; settings: 100 µM
T1 construct: expressed in transfected cells
Procedure: (§1) Human embryonic kidney 293 (HEK293) cells were stably transfected with expression plasmids that encode hTRPC3-YFP, hTRPC6-YFP, hTRPC7-YFP, mTRPC4ß-YFP, rTRPV1-CFP, rTRPV2-YFP, rTRPV3-YFP, mTRPV4-YFP, or hTRPM2 as previously described. Cell lines were cultured in Earle’s minimum essential medium (MEM; Sigma, Munich, Germany), supplemented with 10% fetal calf serum (Gibco Thermo Fisher Scientific, Darmstadt, Germany), 2 mM L-glutamine, and required concentrations of geneticin in a range of 0.4–1 mg/mL. A HEK293mTRPC5-YFP cell line was maintained and induced as described before. […] For electrophysiological and single cell [Ca^2+]i imaging experiments, PC12 cells were plated onto 25 mm poly-L-lysine-coated glass coverslips and measured 24–48 h after seeding. […]
(§2) The primary compound screen and the generation of concentration response curves in HEK293 cells or in PC12 cells were performed by using a custom-made fluorescence plate imager built into a robotic liquid handling station equipped with a 96-tip multichannel head (Freedom Evo 150, Tecan, Männedorf, Switzerland) as described previously. […] Plates were mounted on the imager, and fluorescence signals were recorded with a cooled Zyla 5.5 camera (Andor, Belfast, UK) through a 515 nm long pass filter. […] When inhibitory potencies were evaluated, a second pipetting step with the respective reference agonist was performed. […]

rTRPV1-CFP = tested on: T2, rTRPV1-CFP; assay: Selectivity profiling, fluo-4 [Ca2+]i response, TRPV1; assay type: cell-based, rat; settings: 100 µM
T2 construct: expressed in transfected cells
Procedure: as §1, §2

mTRPV4-YFP = tested on: T3, mTRPV4-YFP; assay: Selectivity profiling, fluo-4 [Ca2+]i response, TRPV4; assay type: cell-based, mouse; settings: 100 µM
T3 construct: expressed in transfected cells
Procedure: as §1, §2

[1] = tested on: PC12 cells (native TRPC3 channel complexes); assay: Whole-cell patch-clamp recordings in PC12 cells; assay type: cell-based, rat; settings: 50 µM artemisinin, whole cell
Procedure: The recordings of TRPC3, TRPC6, or TRPC7 membrane currents in HEK293 or PC12 cells were realized by using a Multiclamp 700B amplifier with a Digidata 1440A digitizer controlled by the PClamp 10 software (all Molecular Devices, Sunnyvale, CA, U.S.A.). Recordings were obtained at room temperature either in the whole-cell or in an outside-out configuration as indicated. Cells were seeded as described above, but at lower density, mounted in a chamber (Warner Instruments, Hamden, CT; U.S.A.), placed onto the stage of an inverted microscope, and perfused with required solution. The standard extracellular solution contained 140 mM NaCl, 5 mM CsCl, 2 mM MgCl2, 1 mM CaCl2, 10 mM HEPES, and 0.035% BSA adjusted to pH 7.4 with NaOH. The composition of standard intracellular solution was 140 mM CsCl, 1 mM MgCl2, 5 mM EGTA, and 10 mM HEPES adjusted to pH 7.25 with CsOH; the osmolarity was 295 mOsm l^−1. In outside-out measurements, the pipette solution contained 5 mM EGTA and 1.1 mM CaCl2 to achieve a calculated free Ca^2+ concentration of 100 nM.
Patch pipettes were pulled from borosilicate glass capillaries BG150F-8P (Science Products, Hofheim, Germany) with a PIP6 pipette puller (HEKA Elektronik, Lambrecht, Germany). […] In all whole-cell measurements, the series resistance was lower than 13 MΩ, and compensated by 70%. If the access was unstable during the experiment (increase in series resistance by more than 15% at the end of the experiment), the cell was omitted from the analysis. To record current/voltage (I/V) curves, voltage ramps (400 mV s^−1) ranging from –100 to +100 mV were applied. Currents were filtered at 3 kHz with a four-pole Bessel filter and sampled at 10 kHz. […]
Figure 9 Artemisinin-induced ionic currents in HEK293 cells and in PC12 cells are sensitive to established TRPC3 inhibitors. […] Concentration–response curves were normalized to responses measured without an inhibitor (controls), and IC50 values were obtained by fitting a four-parameter Hill equation to the data. […]

For `C[C@@H]1CC[C@H]2[C@@H](C)C(=O)O[C@@H]3O[C@@]4(C)CC[C@@H]1[C@]32OO4` [artemisinin], the “[Ca2+]i response, TRPC5” value (mTRPC5-YFP) was “none of the cell lines responded”, the “[Ca2+]i response, TRPV1” value (rTRPV1-CFP) was “none of the cell lines responded” and the “[Ca2+]i response, TRPV4” value (mTRPV4-YFP) was “none of the cell lines responded”. For the same molecule, the “currents in PC12 cells” value [1] was “induced a Ca^2+ influx and TRPC3-like currents”.
